Assay results as given in patent US6653320B2, “Imidazopyridine derivatives” (Yamanouchi Pharmaceutical Co. Ltd., priority 2000, dated 2003).

Key:
A375 cells = test: Melanoma cell growth inhibition; assay type: cell-based; details: Homo sapiens, A-375, incubation over 46 hours, Alamar Blue
Experimental: A375 cells from a melanoma cell line were cultured in DMEM medium (GIBCO) supplemented with 10% fetal bovine serum. A375 cells at 10,000 cells/100 μl were added to a 96 well plate which contained 1 μl/well of the test compounds (final concentration of 0.001˜30 μM). After incubation for over 46 hours, Alamar Blue reagent was added to the medium (10 μl/well). Two hours after the addition, a ratio of fluorescent intensity at an excitation wavelength of 530 nm to that at an emission wavelength of 590 nm was measured to determine the IC50 of the test compounds in the same manner as in the above examples.

bovine p110α = target: T1, bovine p110α (Bos taurus, UniProt P32871); test: Inhibition of PI3K (p110α subtype); assay type: biochemical; details: compared with known PI3K inhibitor LY294002
T1 construct: made in house
Experimental: The resulting mixture was stirred and then centrifuged. After the organic layer was extracted twice with 150 μl of MeOH/1M HCl (1:1). The radioactivity was measured using Cerenkov light.

HCT116 cells = assay type: cell-based; details: HCT116 colon cancer cells, incubation over 72 hours, Alamar Blue, result in words
Experimental: HCT116 cells from a colon cancer cell line were cultured in McCoy's 5A medium (GIBCO) supplemented with 10% fetal bovine serum. HCT116 cells were inoculated on a 96 well plate (5000 cells/well) followed by overnight incubation. The test compound diluted with the medium was added to the medium in a final concentration of 0.1 to 30 μM (final DMSO concentration, 1%). After incubation for over 72 hours, Alamar Blue reagent was added to the medium. Two hours after the addition, a ratio of fluorescent intensity at an excitation wavelength of 530 nm to that at an emission wavelength of 590 nm was measured to determine the IC50.

T1 sequence (P32871 whole entry): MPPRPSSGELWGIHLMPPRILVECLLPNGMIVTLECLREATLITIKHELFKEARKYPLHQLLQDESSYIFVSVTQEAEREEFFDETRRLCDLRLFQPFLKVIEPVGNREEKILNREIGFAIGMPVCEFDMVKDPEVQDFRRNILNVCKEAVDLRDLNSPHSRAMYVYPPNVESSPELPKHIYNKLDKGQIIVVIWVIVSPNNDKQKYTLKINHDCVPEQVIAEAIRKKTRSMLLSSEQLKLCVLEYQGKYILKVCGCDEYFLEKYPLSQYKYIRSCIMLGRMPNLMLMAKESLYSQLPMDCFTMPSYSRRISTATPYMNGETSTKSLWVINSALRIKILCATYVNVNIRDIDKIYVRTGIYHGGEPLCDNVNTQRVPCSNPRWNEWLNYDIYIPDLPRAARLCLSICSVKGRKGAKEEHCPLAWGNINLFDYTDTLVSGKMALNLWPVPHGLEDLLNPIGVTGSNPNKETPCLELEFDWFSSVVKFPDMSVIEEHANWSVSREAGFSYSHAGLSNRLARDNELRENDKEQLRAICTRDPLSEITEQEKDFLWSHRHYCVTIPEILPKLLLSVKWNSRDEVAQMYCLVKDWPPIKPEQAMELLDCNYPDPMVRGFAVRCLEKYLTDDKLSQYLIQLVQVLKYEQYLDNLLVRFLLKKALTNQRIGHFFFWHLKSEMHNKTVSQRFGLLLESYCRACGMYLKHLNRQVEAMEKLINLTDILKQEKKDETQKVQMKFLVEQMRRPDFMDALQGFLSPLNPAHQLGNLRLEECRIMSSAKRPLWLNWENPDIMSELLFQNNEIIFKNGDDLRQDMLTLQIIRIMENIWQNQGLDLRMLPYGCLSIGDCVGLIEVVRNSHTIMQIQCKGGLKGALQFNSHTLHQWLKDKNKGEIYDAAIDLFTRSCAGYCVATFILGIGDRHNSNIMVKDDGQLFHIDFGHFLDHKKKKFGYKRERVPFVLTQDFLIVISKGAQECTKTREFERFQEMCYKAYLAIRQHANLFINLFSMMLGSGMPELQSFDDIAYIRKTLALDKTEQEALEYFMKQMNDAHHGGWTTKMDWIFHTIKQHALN

SMILES	IC50 (A375 cells) [nM]	PI3K inhibition, strength relative to LY294002 (bovine p110α)	cancer cell growth inhibition activity (HCT116 cells)
Cc1ccc2ncc(C=NN(C)S(=O)(=O)c3cc([N+](=O)[O-])ccc3C)n2c1 [Compound 99, 1′,2-dimethyl-2′-[(6-methylimidazo[1,2-a]pyridin-3-yl)methylidene]-5-nitrobenzenesulfonohydrazide]	< 1000		
Cc1ccc([N+](=O)[O-])cc1S(=O)(=O)n1ccc(-c2c(C)nc3ccc(Br)cn23)n1 [Compound 6, 3-(6-Bromo-2-methylimidazo[1,2-a]pyridin-3-yl)-1H-pyrazol-1-yl 2-methyl-5-nitrophenyl sulfone]		more than 10 times	good cancer cell growth inhibition activity
